pIC50: −log10 of the molar value.
Legend:
Assay type in all cases: biochemical
PKA = target: T1, PKA (Homo sapiens, UniProt P17612); test: PKA kinase assay (Kemptide substrate); settings: 100 μM ATP
T1 construct: purchased Upstate
Description: (§1) The assay mixture containing the inhibitor and CDK-2 enzyme, complexed with cyclin A (0.4 U/ml) was mixed together in a microtiter plate in a final volume of 50 μl and incubated for 40 min at 30° C. The assay mixture contained 0.1 mM unlabeled ATP, 0.01 μCi/μl ^33P-γ-ATP, 0.03 mM peptide, 0.1 mg/ml BSA, 7.5 mM magnesium acetate, 50 mM HEPES-NaOH, pH 7.5. The reaction was stopped by adding 50 μl of 50 mM phosphoric acid. 90 μl of the mixture were transferred to a pre-wetted 96-well Multiscreen MAPHNOB filtration plate (Millipore) and filtered on a vacuum manifold. The filter plate was washed with 3 successive additions of 200 μl 50 mM phosphoric acid and then with 100 μl methanol. The filtration plate was dried for 10 min at 65° C., scintillant added and phosphorylated peptide quantified in a scintillation counter (Trilux, PerkinElmer)
The PKA assay was incubated at 30° C. for 30 minutes.

Akt1 = target: T2, Akt1 (Homo sapiens, UniProt P31749); test: Akt1 kinase assay (Histone H1 substrate); settings: 200 μM ATP, read-out: AKT-1 IC50
T2 construct: purchased Upstate
T2 sequence (P31749 whole entry, species assumed): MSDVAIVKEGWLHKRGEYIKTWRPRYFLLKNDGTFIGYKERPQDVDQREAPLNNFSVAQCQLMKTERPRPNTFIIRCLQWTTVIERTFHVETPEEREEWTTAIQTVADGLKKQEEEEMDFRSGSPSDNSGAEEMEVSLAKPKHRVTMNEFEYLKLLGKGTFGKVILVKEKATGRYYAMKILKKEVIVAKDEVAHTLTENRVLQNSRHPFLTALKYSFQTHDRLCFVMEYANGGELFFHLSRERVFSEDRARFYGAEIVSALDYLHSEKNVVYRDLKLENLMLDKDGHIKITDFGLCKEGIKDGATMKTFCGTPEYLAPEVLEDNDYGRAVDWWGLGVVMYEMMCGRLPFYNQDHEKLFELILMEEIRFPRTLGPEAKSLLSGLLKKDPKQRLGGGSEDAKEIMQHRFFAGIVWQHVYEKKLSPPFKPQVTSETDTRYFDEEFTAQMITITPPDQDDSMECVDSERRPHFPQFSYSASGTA
Description: Assays for the cyclin dependent kinase activity were carried out by monitoring the phosphorylation of a synthetic peptide, HATTPKKKRK. The assay mixture containing the inhibitor and CDK-2 enzyme, complexed with cyclin A (0.4 U/ml) was mixed together in a microtiter plate in a final volume of 50 μl and incubated for 40 min at 30° C. The assay mixture contained 0.1 mM unlabeled ATP, 0.01 μCi/μl ^33P-γ-ATP, 0.03 mM peptide, 0.1 mg/ml BSA, 7.5 mM magnesium acetate, 50 mM HEPES-NaOH, pH 7.5. The reaction was stopped by adding 50 μl of 50 mM phosphoric acid. 90 μl of the mixture were transferred to a pre-wetted 96-well Multiscreen MAPHNOB filtration plate (Millipore) and filtered on a vacuum manifold. The filter plate was washed with 3 successive additions of 200 μl 50 mM phosphoric acid and then with 100 μl methanol. The filtration plate was dried for 10 min at 65° C., scintillant added and phosphorylated peptide quantified in a scintillation counter (Trilux, PerkinElmer)
Protocol for the Akt assay is the same for CDK2 except that, 3 nM Akt1 (Upstate) was used with Histone H1 as substrate with a final ATP concentration of 200 μM. The reaction was incubated at 30° C. for 40 minutes.

PDK1 = target: T3, PDK1 (Homo sapiens, UniProt O15530); test: PDK1 kinase assay (33P peptide phosphorylation); settings: 0.01 mM ATP, 60 min at 30° C.; read-out: PDK-1 IC50
T3 sequence (O15530 1-556): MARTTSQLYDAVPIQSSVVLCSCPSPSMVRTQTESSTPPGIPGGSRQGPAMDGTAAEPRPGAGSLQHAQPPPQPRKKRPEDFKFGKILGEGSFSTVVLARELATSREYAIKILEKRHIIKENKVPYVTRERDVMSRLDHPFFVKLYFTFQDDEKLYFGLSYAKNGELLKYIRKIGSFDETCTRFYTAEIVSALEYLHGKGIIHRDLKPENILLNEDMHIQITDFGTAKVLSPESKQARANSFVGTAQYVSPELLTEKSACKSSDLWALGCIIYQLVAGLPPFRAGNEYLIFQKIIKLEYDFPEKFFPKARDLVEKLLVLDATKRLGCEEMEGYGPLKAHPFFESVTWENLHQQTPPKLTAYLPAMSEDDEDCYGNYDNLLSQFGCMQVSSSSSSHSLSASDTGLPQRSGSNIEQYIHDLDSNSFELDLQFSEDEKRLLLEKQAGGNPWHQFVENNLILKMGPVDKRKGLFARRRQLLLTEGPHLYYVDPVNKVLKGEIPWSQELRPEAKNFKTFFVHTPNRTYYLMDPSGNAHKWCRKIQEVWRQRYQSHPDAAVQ
Description: as §1, with “and PDK1 enzyme” for “and CDK-2 enzyme, complexed with cyclin A (0.4 U/ml)”, “for 60” for “for 40”, “contained 0.01” for “contained 0.1”, “^33P-γ-ATP, 0.075” for “^33P-γ-ATP, 0.03”, “acetate, 0.05M Tris.HCl,” for “acetate, 50 mM HEPES-NaOH,”, “pH 7.5, 0.5% 2-mercaptoethanol.” for “pH 7.5.”

[1] = target: CDK-2 enzyme, complexed with cyclin A (Homo sapiens, UniProt P24941); test: CDK2 kinase assay (33P peptide phosphorylation); settings: 0.1 mM ATP, cyclin A complex
Description: as §1

GST-Chk1 enzyme = target: T4, GST-Chk1 enzyme (Homo sapiens, UniProt O14757); test: Chk1 kinase assay (33P Chktide phosphorylation); settings: 0.01 mM ATP, 40 minutes at 30° C.; read-out: CHK-1 IC50
T4 sequence (O14757 1-476): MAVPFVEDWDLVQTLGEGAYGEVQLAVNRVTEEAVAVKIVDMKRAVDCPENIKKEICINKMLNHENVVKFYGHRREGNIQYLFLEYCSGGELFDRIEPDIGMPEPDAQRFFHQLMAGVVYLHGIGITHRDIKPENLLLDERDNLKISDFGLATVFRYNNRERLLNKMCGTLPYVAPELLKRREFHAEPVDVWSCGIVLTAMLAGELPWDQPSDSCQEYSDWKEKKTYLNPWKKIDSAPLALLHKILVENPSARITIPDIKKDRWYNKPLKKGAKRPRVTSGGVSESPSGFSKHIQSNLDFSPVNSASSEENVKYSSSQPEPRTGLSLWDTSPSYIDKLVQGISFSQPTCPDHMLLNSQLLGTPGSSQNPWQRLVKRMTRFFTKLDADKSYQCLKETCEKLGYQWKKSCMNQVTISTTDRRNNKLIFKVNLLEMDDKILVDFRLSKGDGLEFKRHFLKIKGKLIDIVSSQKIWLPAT
Description: as §1, with “and Chk1 enzyme” for “and CDK-2 enzyme, complexed with cyclin A (0.4 U/ml)”, “40 minutes” for “40 min”, “C. […]” for “C. The assay mixture contained 0.1 mM unlabeled ATP, 0.01 μCi/μl ^33P-γ-ATP, 0.03 mM peptide, 0.1 mg/ml BSA, 7.5 mM magnesium acetate, 50 mM HEPES-NaOH, pH 7.5.”, “mixture was” for “mixture were”, “96-well multi-screen” for “96-well Multiscreen”

Row | SMILES | pIC50 (PKA) | pIC50 (Akt1) | pIC50 (PDK1) | pIC50 [1] | pIC50 (GST-Chk1 enzyme)
1 | O=C(NC1CCNCC1)c1c[nH]nc1-c1nc2ccccc2[nH]1 [Example 20] | 4.49 | < 4.30 | 6.49 | 5.20 | 6.60
2 | Cc1[nH]nc(-c2nc3ccc(NC(=O)C(C)C)cc3[nH]2)c1C(=O)NC1CCN(C)CC1 [Example 21] | 4.88 | < 4.30 | 7.13 | 4.67 | 8.22
3 | Cc1[nH]nc(-c2nc3cc4cn[nH]c4cc3[nH]2)c1C(=O)NCC1CCNCC1 [Example 22] | 5.19 | 4.44 | 6.96 | 4.51 | 7.03
4 | Cc1[nH]nc(-c2nc3cc(-c4cccc5c4CCO5)ccc3[nH]2)c1C(=O)NC1CCNCC1 [Example 23] | 5.27 | 4.59 | 6.90 | 4.68 | 7.82
5 | Cc1[nH]nc(-c2nc3cc(C(=O)NC(C)C)ccc3[nH]2)c1C(=O)NC1CCNCC1 [Example 24] | 4.97 | 4.46 | 7.34 | 5.19 | 7.44
6 | Cc1[nH]nc(-c2nc3cc4ccccc4cc3[nH]2)c1C(=O)NCC1CCCN1 (stereo not drawn) [Example 26] | 4.46 | < 4.30 | 6.28 | 4.47 | 6.51
7 | Cc1[nH]nc(-c2nc3cc4ccccc4cc3[nH]2)c1C(=O)NCC1CCNC1 (stereo not drawn) [Example 27] | 5.08 | < 4.30 | 6.84 | 5.20 | 8.40
8 | Cc1[nH]nc(-c2nc3cc4ccccc4cc3[nH]2)c1C(=O)NCC1CCCNC1 (stereo not drawn) [Example 28] | 5.05 | < 4.30 | 6.90 | 5.07 | 8.10
9 | Cc1cc2nc(-c3n[nH]c(C)c3C(=O)NC3CCN(C)CC3)[nH]c2cc1C [Example 29] | 5.22 | < 4.30 | 6.74 | 5.08 | 7.80
10 | Cc1[nH]nc(-c2nc3ccccc3[nH]2)c1C(=O)NC1CCN(C)CC1 [Example 30] | 4.69 | 4.93 | 6.86 | 5.66 | 7.20
11 | COCCNC(=O)c1ccc2nc(-c3n[nH]c(C)c3C(=O)NC3CCNCC3)[nH]c2c1 [Example 31] | 5.09 | 4.50 | 7.14 | 4.94 | 8.70
12 | Cc1[nH]nc(-c2nc3ccc(C(=O)NCC(C)c4ccccc4)cc3[nH]2)c1C(=O)NC1CCNCC1 (stereo not drawn) [Example 32] | 5.19 | 4.74 | 7.44 | 4.81 | 8.52

From US20090131470A1, “PYRAZOLE-SUBSTITUTED BENZIMIDAZOLE DERIVATIVES FOR USE IN THE TREATMENT OF CANCER AND AUTOIMMUNE DISORDERS” (priority 2005, published 2009)
